# Measurements as given in ChEMBL document CHEMBL1136837, “Unified QSAR approach to antimicrobials. 4. Multi-target QSAR modeling and comparative multi-distance study of the giant components of antiviral drug-drug complex networks” (Bioorg Med Chem, 2009).
# pIC50: −log10 of the molar value. Starred links: 1 amine or outer side, 2 acyl side, 3 side chain; linkers in the order of their positions; H or OH if unused. Non-standard residues stand in square brackets, D forms with d. Residues, ends and D or L forms follow the SMILES beside them. *: point of attachment. Hyp(2-Ph-quinolin-4-yl) = O=C(O)[C@@H]1C[C@@H](Oc2cc(-c3ccccc3)nc3ccccc23)CN1; NH(1R-phenylethyl) = C[C@@H](N*)c1ccccc1; Dip = N[C@H](C(=O)O)C(c1ccccc1)c1ccccc1; CH2(1-naphthyl) = c1ccc2c(C*)cccc2c1; Hyp = O=C(O)[C@@H]1C[C@@H](O)CN1; X8 = CCCN(N*)C(=O)NN(C)c1ccccc1; azaNva = CCCN(N[*:1])C(=O)[*:2]; Cha = N[C@@H](CC1CCCCC1)C(=O)O; Chg = N[C@H](C(=O)O)C1CCCCC1; NH(CH2)3Ph = c1ccc(CCCN*)cc1; X3 = C[C@H](N*)c1ccc(Br)cc1; X5 = c1ccc2c(c1)CC[C@@H]2N*; X6 = c1ccc2c(c1)CC(N*)C2; X7 = C[C@H](N*)C1CCCCC1; Ac3c = NC1(C(=O)O)CC1; X1 = Clc1ccccc1CCN*; X4 = C1CCC(CCN*)CC1; Bn = c1ccc(C*)cc1
# Tested on: Hepatitis C virus
# Experiment: Antiviral activity against Hepatitis C virus
# Type: functional, organism-based, Hepacivirus hominis
SMILES,pIC50 (Hepatitis C virus),pIC50
CC(=O)N[C@H](C(=O)N[C@H](C(=O)N1C[C@H](Oc2cccc(Br)c2)C[C@H]1C(=O)NC1(C(=O)O)CC1)C(C)C)C1CCCCC1,4.28,–
O=C(O)[C@H](Cc1ccccc1)N(Cc1cccc(Br)c1)C(=O)c1ccc(Cl)cc1Cl,5.46,–
CC(=O)N[C@@H](CC(=O)O)C(=O)N[C@@H](CCC(=O)O)C(=O)N[C@H](C(=O)N[C@@H](CCC(=O)O)C(=O)N[C@@H](CC1CCCCC1)C(=O)N[C@@H](CS)C(=O)NCCc1ccccc1Cl)C(c1ccccc1)c1ccccc1 (Ac-DE[Dip]E[Cha]C-X1),8.70,–
COc1ccc2c(O[C@@H]3C[C@H]4C(=O)N[C@]5(C(=O)O)C[C@H]5/C=C\CCCCC[C@H](NC(=O)OC5CCCC5)C(=O)N4C3)cc(-n3ccc(C)n3)nc2c1,8.66,–
CCc1ccc(Cl)c2[nH]c3c(c12)CCOC3(CC)CC(=O)O (configuration not stated),4.52,–
CC(=O)N[C@@H](CC(=O)O)C(=O)N[C@@H](CCC(=O)O)C(=O)N[C@H](C(=O)N[C@@H](CCC(=O)O)C(=O)N[C@@H](CC1CCCCC1)C(=O)N[C@@H](CS)C(=O)NC1Cc2ccccc2C1)C(c1ccccc1)c1ccccc1 (Ac-DE[Dip]E[Cha]C-X6),5.77,–
N#Cc1ccc(Br)cc1COc1cccc(C(=O)/C=C(\O)C(=O)O)c1,7.00,–
CC(=O)N[C@H](C(=O)N[C@H](C(=O)N1C[C@H](Oc2cccc(-c3cccc([N+](=O)[O-])c3)c2)C[C@H]1C(=O)NC1(C(=O)O)CC1)C(C)C)C1CCCCC1,5.40,–
COc1ccc2c(O[C@@H]3C[C@H]4C(=O)N[C@]5(C(=O)O)C[C@H]5/C=C\CCCCC[C@H](NC(=O)OC5CCCC5)C(=O)N4C3)cc(-n3cccn3)nc2c1,8.66,–
CC(C)COC(=O)N[C@@H](CCC(=O)O)C(=O)N[C@@H](CC(C)C)C(=O)N[C@@H](CS)C(=O)NCCc1ccccc1,4.72,–
COc1ccc2c(O[C@@H]3C[C@H]4C(=O)N[C@]5(C(=O)O)C[C@H]5/C=C\CCCCC[C@H](NC(=O)OC(C)(C)C)C(=O)N4C3)cc(-c3nnc(C)o3)nc2c1,7.92,–
N#Cc1ccccc1COc1cccc(C(=O)/C=C(\O)C(=O)O)c1,6.64,–
N#Cc1c(Cl)cc(Cl)cc1COc1cccc(C(=O)/C=C(\O)C(=O)O)c1,7.35,–
CCC[C@@]1(CC(=O)O)OCCc2c1[nH]c1c(C)cc(F)c(C#N)c21,6.20,–
CCCN(NC(=O)[C@@H]1C[C@@H](OCc2ccccc2)CN1C(=O)[C@@H](NC(=O)[C@@H](NC(=O)[C@@H](CCC(=O)O)NC(=O)[C@H](CC(=O)O)NC(C)=O)[C@@H](C)CC)C(C)C)C(=O)N[C@H]1CCc2ccccc21 (Ac-D[dE]IV[Hyp](Bn)[azaNva]-X5),7.00,–
COc1ccc2c(O[C@@H]3C[C@H]4C(=O)N[C@]5(C(=O)O)C[C@H]5/C=C\CCCCC[C@H](NC(=O)N[C@H](C)C(C)(C)C)C(=O)N4C3)cc(-c3csc(NC(C)=O)n3)nc2c1,8.85,–
COc1ccc2c(O[C@@H]3C[C@H]4C(=O)N[C@]5(C(=O)O)C[C@H]5/C=C\CCCCC[C@H](NC(=O)OC(C)(C)C)C(=O)N4C3)cc(-n3cccc3)nc2c1,8.29,–
CCNc1nc(-c2cc(O[C@@H]3C[C@H]4C(=O)N[C@]5(C(=O)O)C[C@H]5/C=C\CCCCC[C@H](NC(=O)OC5CCCC5)C(=O)N4C3)c3ccc(OC)cc3n2)cs1,8.54,–
CC(=O)N[C@H](C(=O)N[C@H](C(=O)N1C[C@H](OCc2cccc3ccccc23)C[C@H]1C(=O)N[C@@]1(C(=O)O)C[C@@H]1CCc1ccccc1)C(C)C)C1CCCCC1,4.05,–

SMILES,pIC50 (Hepatitis C virus),pIC50
COC(=O)C(=O)CC(=O)c1ccccc1,4.30,–
CC(C)COC(=O)N[C@@H](CCC(=O)O)C(=O)N[C@@H](CC(C)C)C(=O)N[C@@H](CS)C(=O)NCCc1ccc(C(=O)O)cc1,5.70,–
CCC[C@]1(CC(=O)O)OCCc2c1[nH]c1c(C)cc(F)c(C#N)c21,7.10,–
O=C(O)[C@H](Cc1ccccc1)N(Cc1ccc(-c2nccs2)cc1)C(=O)c1ccc(Cl)cc1Cl (stereo in doubt; form 1),–,6.21
O=C(O)C(=O)CC(=O)c1ccccc1OCc1ccccc1,4.36,–
COc1ccc2c(O[C@@H]3C[C@H]4C(=O)N[C@]5(C(=O)O)C[C@H]5/C=C\CCCCC[C@H](NC(=O)OC(C)(C)C)C(=O)N4C3)cc(-c3csc(NC(C)=O)n3)nc2c1,8.32,–
COC(=O)c1ccccc1CCNC(=O)[C@H](CS)NC(=O)[C@H](CC(C)C)NC(=O)[C@H](CCC(=O)O)NC(=O)OCC(C)C,4.27,–
Cc1cccc(CN(C(=O)c2ccc(Cl)cc2Cl)[C@@H](Cc2ccccc2)C(=O)O)c1,5.74,–
CCCN(NC(=O)[C@@H]1C[C@@H](OCc2ccccc2)CN1C(=O)[C@@H](NC(=O)[C@@H](NC(=O)[C@@H](CCC(=O)O)NC(=O)[C@H](CC(=O)O)NC(C)=O)[C@@H](C)CC)C(C)C)C(=O)N[C@H](C)c1ccccc1 (Ac-D[dE]IV[Hyp](Bn)[azaNva]-{NH(1R-phenylethyl)}),5.37,–
CCC[C@@]1(CC(=O)O)OCCc2c1[nH]c1c(Cl)ccc(CC)c21,4.82,–
COc1ccc2c(O[C@@H]3C[C@H]4C(=O)N[C@]5(C(=O)O)C[C@H]5/C=C\CCCCC[C@H](NC(=O)OC(C)(C)C)C(=O)N4C3)cc(-n3ccnc3)nc2c1,8.33,–
COc1ccc2c(O[C@@H]3C[C@H]4C(=O)N[C@]5(C(=O)O)C[C@H]5/C=C\CCCCC[C@H](NC(=O)OC5CCCC5)C(=O)N4C3)cc(-c3csc(NC(C)=O)n3)nc2c1,8.60,–
N#CCCCOc1ccccc1C(=O)CC(=O)C(=O)O,6.46,–
CC(=O)N[C@@H](CC(=O)O)C(=O)N[C@@H](CCC(=O)O)C(=O)N[C@H](C(=O)N[C@@H](CCC(=O)O)C(=O)N[C@@H](CC1CCCCC1)C(=O)N[C@@H](CS)C(=O)NCCCc1ccccc1)C(c1ccccc1)c1ccccc1 (Ac-DE[Dip]E[Cha]C-{NH(CH2)3Ph}),6.68,–
O=C(O)C(=O)CC(=O)c1ccccc1,5.24,–
CCCC1(CC(=O)O)OCCc2c1[nH]c1c(C)ccc(C#N)c21 (configuration not stated),6.24,–
CC(=O)N[C@H](C(=O)N[C@H](C(=O)N1C[C@H](Oc2cc(-c3ccccc3)nc3ccccc23)C[C@H]1C(=O)NC1(C(=O)O)CC1)C(C)C)C1CCCCC1 (Ac-[Chg]V[Hyp(2-Ph-quinolin-4-yl)][Ac3c]-OH),6.43,–
CC(=O)N[C@H](C(=O)N[C@H](C(=O)N1C[C@H](OCc2cccc3ccccc23)C[C@H]1C(=O)N[C@@]1(C(=O)O)C[C@@H]1Cc1ccccc1)C(C)C)C1CCCCC1,4.09,–
CC(=O)N[C@H](C(=O)N[C@H](C(=O)N1C[C@H](OCc2cccc3ccccc23)C[C@H]1C(=O)NC1(C(=O)O)CC1)C(C)C)C1CCCCC1 (Ac-[Chg]V[Hyp](CH2(1-naphthyl))[Ac3c]-OH),5.40,–

SMILES,pIC50 (Hepatitis C virus),pIC50
O=C(CC(=O)C(=O)O)Cc1ccco1,4.30,–
O=C(CC(=O)C(=O)O)Cc1ccncc1,4.30,–
CCC[C@]1(CC(=O)O)OCCc2c1[nH]c1c(C)ccc(C#N)c21,6.48,–
O=C(O)[C@H](Cc1ccccc1)N(Cc1cccnc1)C(=O)c1ccc(Cl)cc1Cl,4.96,–
COc1ccc2c(O[C@@H]3C[C@H]4C(=O)N[C@]5(C(=O)O)C[C@H]5/C=C\CCCCC[C@H](NC(=O)OC(C)(C)C)C(=O)N4C3)cc(-n3ccc(C)n3)nc2c1,8.52,–
O=C(O)C(=O)CC(=O)c1cccc(NS(=O)(=O)c2ccccc2)c1,4.80,–
CCCC1(CC(=O)O)OCCc2c1[nH]c1c(C)cc(F)c(C#N)c21 (configuration not stated),6.92,–
CC(=O)N[C@H](C(=O)N[C@H](C(=O)N1C[C@H](OCc2cccc3ccccc23)C[C@H]1C(=O)N[C@@]1(C(=O)O)C[C@@H]1C(C)C)C(C)C)C1CCCCC1,3.19,–
O=C(CC(O)C(=O)O)c1ccccc1 (configuration not stated),4.30,–
CC(=O)N[C@@H](CC(=O)O)C(=O)N[C@@H](CCC(=O)O)C(=O)N[C@H](C(=O)N[C@@H](CCC(=O)O)C(=O)N[C@@H](CC1CCCCC1)C(=O)N[C@@H](CS)C(=O)NCCC1CCCCC1)C(c1ccccc1)c1ccccc1 (Ac-DE[Dip]E[Cha]C-X4),5.81,–
CCCN(NC(=O)[C@@H]1C[C@@H](OCc2ccccc2)CN1C(=O)[C@@H](NC(=O)[C@@H](NC(=O)[C@@H](CCC(=O)O)NC(=O)[C@H](CC(=O)O)NC(C)=O)[C@@H](C)CC)C(C)C)C(=O)N[C@@H](C)C1CCCCC1 (Ac-D[dE]IV[Hyp](Bn)[azaNva]-X7),6.38,–
"CCCC1(CC(=O)O)OCCc2c1[nH]c1c(F)ccc(C#N)c21 (single isomer, unassigned)",5.28,–
COc1ccc2c(O[C@@H]3C[C@H]4C(=O)N[C@]5(C(=O)O)C[C@H]5/C=C\CCCCC[C@H](NC(=O)OC(C)(C)C)C(=O)N4C3)cc(-n3cnc(C)c3)nc2c1,7.85,–
CCC[C@@]1(CC(=O)O)OCCc2c1[nH]c1c(C)ccc(C#N)c21,5.62,–
Cc1cn([C@@H]2O[C@H](CO)[C@@H](O)[C@@]2(C)O)c2ncnc(N)c12,4.47,–
CCCN(NC(=O)[C@@H]1C[C@@H](OCc2ccccc2)CN1C(=O)[C@@H](NC(=O)[C@@H](NC(=O)[C@@H](CCC(=O)O)NC(=O)[C@H](CC(=O)O)NC(C)=O)[C@@H](C)CC)C(C)C)C(=O)N[C@@H](C)c1ccc(Br)cc1 (Ac-D[dE]IV[Hyp](Bn)[azaNva]-X3),7.14,–
CCCN(NC(=O)[C@@H]1C[C@@H](OCc2ccccc2)CN1C(=O)[C@@H](NC(=O)[C@@H](NC(=O)[C@@H](CCC(=O)O)NC(=O)[C@H](CC(=O)O)NC(C)=O)[C@@H](C)CC)C(C)C)C(=O)NN(C)c1ccccc1 (Ac-D[dE]IV[Hyp](Bn)-X8),6.32,–
CNc1nc(-c2cc(O[C@@H]3C[C@H]4C(=O)N[C@]5(C(=O)O)C[C@H]5/C=C\CCCCC[C@H](NC(=O)OC(C)(C)C)C(=O)N4C3)c3ccc(OC)cc3n2)cs1,8.19,–
O=C(O)[C@H](Cc1ccccc1)N(Cc1cccc(C(F)(F)F)c1)C(=O)c1ccc(Cl)cc1Cl,5.77,–
